Results from PubChem BioAssay AID328 (DTP/NCI, 2004).
Where “and” joins values, the source holds several entries; their conditions need not be identical. Equal entries are not always repeated. Toxic doses and inconclusive results are not listed.

Tested on: BDF1 mice, P388 leukemia ip, median survival T/C
Assay: NCI In Vivo Anticancer Drug Screen. Data for tumor model P388 Leukemia (intraperitoneal) in B6D2F1 (BDF1) mice
Settings: endpoint: median survival time, higher = longer survival
Summary of the method: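 T/C = treated-group survival ÷ vehicle-control survival; tumour transplanted into mice before dosing.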

[1] = dose: 100.0 mg/kg/injection, schedule: Q04DX003 (ip), vehicle: saline with Tween-80
[2] = dose: 100.0 mg/kg/injection, schedule: Q01DX009 (ip), vehicle: Klucel (hydroxypropylcellulose) (HPC)
[3] = dose: 200.0 mg/kg/injection, schedule: Q01DX009 (ip), vehicle: Klucel (hydroxypropylcellulose) (HPC)
[4] = dose: 400.0 mg/kg/injection, schedule: Q01DX009 (ip), vehicle: Klucel (hydroxypropylcellulose) (HPC)

## CCOC(=O)C(=CN1CCCCCC1)C(=O)OCC
[1]
  T/C: 109 % of control
dose: 200.0 mg/kg/injection, schedule: Q04DX003 (ip), vehicle: saline with Tween-80
  T/C: 109 % of control
dose: 400.0 mg/kg/injection, schedule: Q04DX003 (ip), vehicle: saline with Tween-80
  T/C: 113 % of control

## CCOC(=O)C1CCCN1C(=O)c1c2nc3c(C(=O)N4CCCC4C(=O)OCC)ccc(C)c3oc-2c(C)c(=O)c1N (stereo unspecified)
dose: 100.0 mg/kg/injection, schedule: Q04DX002 (ip), vehicle: saline with Tween-80
  T/C: 90 % of control
dose: 200.0 mg/kg/injection, schedule: Q04DX002 (ip), vehicle: saline with Tween-80
  T/C: 101 % of control
dose: 400.0 mg/kg/injection, schedule: Q04DX002 (ip), vehicle: saline with Tween-80
  T/C: 90 % of control

## O=[N+]([O-])c1ccc(SCc2ccccc2)c2c1no[n+]2[O-]
dose: 15.0 mg/kg/injection, schedule: Q01DX009 (ip), vehicle: saline with Tween-80
  T/C: 105 % of control
dose: 30.0 mg/kg/injection, schedule: Q01DX009 (ip), vehicle: saline with Tween-80
  T/C: 96 % of control
dose: 60.0 mg/kg/injection, schedule: Q01DX009 (ip), vehicle: saline with Tween-80
  T/C: 93 % of control

## CCN(CC)CCOc1cccc(C)c1C
dose: 25.0 mg/kg/injection, schedule: Q04DX003 (ip), vehicle: saline with Tween-80
  T/C: 96 % of control
dose: 50.0 mg/kg/injection, schedule: Q04DX003 (ip), vehicle: saline with Tween-80
  T/C: 100 % of control
[1]
  T/C: 116 % of control

## Cn1cnc2c1c(=O)[nH]c(=O)n2C
[2]
  T/C: 109 % of control
[3]
  T/C: 104 % of control
[4]
  T/C: 97 % of control

## CCOC(=O)NC(=O)CC
dose: 25.0 mg/kg/injection, schedule: Q01DX005 (ip), vehicle: saline
  T/C: 114 % of control
dose: 25.0 mg/kg/injection, schedule: Q01DX009 (ip), vehicle: saline
  T/C: 102 % of control
dose: 50.0 mg/kg/injection, schedule: Q01DX005 (ip), vehicle: saline
  T/C: 114 % of control
dose: 50.0 mg/kg/injection, schedule: Q01DX009 (ip), vehicle: saline
  T/C: 102 % of control
dose: 50.0 mg/kg/injection, schedule: Q04DX003 (ip), vehicle: saline
  T/C: 103 % of control and 104 % of control
dose: 100.0 mg/kg/injection, schedule: Q01DX005 (ip), vehicle: saline
  T/C: 96 % of control
dose: 100.0 mg/kg/injection, schedule: Q01DX009 (ip), vehicle: saline
  T/C: 115 % of control
dose: 100.0 mg/kg/injection, schedule: Q04DX003 (ip), vehicle: saline
  T/C: 96 % of control and 103 % of control and 213 % of control
dose: 200.0 mg/kg/injection, schedule: Q01DX005 (ip), vehicle: saline
  T/C: 122 % of control
dose: 200.0 mg/kg/injection, schedule: Q01DX009 (ip), vehicle: saline
  T/C: 112 % of control
dose: 200.0 mg/kg/injection, schedule: Q04DX003 (ip), vehicle: saline
  T/C: 105 % of control and 112 % of control and 114 % of control
dose: 400.0 mg/kg/injection, schedule: Q01DX009 (ip), vehicle: saline
  T/C: 106 % of control
dose: 400.0 mg/kg/injection, schedule: Q04DX003 (ip), vehicle: saline
  T/C: 99 % of control and 113 % of control
dose: 600.0 mg/kg/injection, schedule: Q04DX003 (ip), vehicle: saline
  T/C: 114 % of control

## ClCc1cccc(CCl)c1
dose: 50.0 mg/kg/injection, schedule: Q01DX009 (ip), vehicle: saline sonified
  T/C: 108 % of control
dose: 100.0 mg/kg/injection, schedule: Q01DX009 (ip), vehicle: saline sonified
  T/C: 108 % of control
dose: 200.0 mg/kg/injection, schedule: Q01DX009 (ip), vehicle: saline sonified
  T/C: 86 % of control

## Cc1c(C)c(Cl)c(C)c(Cl)c1O
[2]
  T/C: 109 % of control
dose: 100.0 mg/kg/injection, schedule: Q04DX003 (ip), vehicle: Klucel (hydroxypropylcellulose) (HPC)
  T/C: 100 % of control
[3]
  T/C: 100 % of control
dose: 200.0 mg/kg/injection, schedule: Q04DX003 (ip), vehicle: Klucel (hydroxypropylcellulose) (HPC)
  T/C: 104 % of control
[4]
  T/C: 109 % of control
dose: 400.0 mg/kg/injection, schedule: Q04DX003 (ip), vehicle: Klucel (hydroxypropylcellulose) (HPC)
  T/C: 100 % of control

## Nc1nc2n[nH]nc2c(=O)[nH]1
dose: 25.0 mg/kg/injection, schedule: Q01DX010 (ip), vehicle: alkali diluted with saline
  T/C: 118 % of control
dose: 100.0 mg/kg/injection, schedule: Q01DX010 (ip), vehicle: alkali diluted with saline
  T/C: 165 % of control
dose: 200.0 mg/kg/injection, schedule: Q01DX010 (ip), vehicle: alkali diluted with saline
  T/C: 160 % of control and 163 % of control

## NCC(=O)Nc1ccc(O)cc1
dose: 79.0 mg/kg/injection, schedule: Q04DX003 (ip), vehicle: saline with Tween-80
  T/C: 100 % of control
dose: 118.0 mg/kg/injection, schedule: Q04DX003 (ip), vehicle: saline with Tween-80
  T/C: 104 % of control
dose: 176.0 mg/kg/injection, schedule: Q04DX003 (ip), vehicle: saline with Tween-80
  T/C: 100 % of control
dose: 400.0 mg/kg/injection, schedule: Q01DX009 (ip), vehicle: saline with Tween-80
  T/C: 118 % of control
dose: 600.0 mg/kg/injection, schedule: Q01DX009 (ip), vehicle: saline with Tween-80
  T/C: 90 % of control
